Measured values published in patent US6599932B1, “Alpha, beta-unsaturated sulfones for treating proliferative disorders” (Temple University-Of The Commonwealth System of Higher …, priority 2000, dated 2003).

Legend:
Format in all cases: cell-based
Design in all cases: dose or concentration left out as unconfirmed
[1] = system: prostate tumor cell line DU-145; assay: Viability assay, Trypan blue exclusion, prostate tumor cell line DU-145; conditions: Homo sapiens, DU-145, 96 hours, read-out: percent cell death (% Death), DU145
Protocol: (§1) The effect of the sulfones on normal fibroblasts and on tumor cells of prostate, colon, lung and breast origin was examined utilizing the following cell lines: prostate tumor cell line DU-145; colorectal carcinoma cell line DLD-1; non-small cell lung carcinoma cell line H157; and breast tumor cell line BT-20. BT-20 is an estrogen-unresponsive cell line. NIH/3T3 and HFL are normal murine and human fibroblasts, respectively. BT-20, DLD-1 and H157 were grown in Dulbecco's modified Eagle's medium (DMEM) containing 10% fetal bovine serum supplemented with penicillin and streptomycin. DU145 was cultured in RPMI with 10% fetal bovine serum containing penicillin and streptomycin. NIH3T3 and HFL cells were grown in DMEM containing 10% calf serum supplemented with penicillin and streptomycin. All cell cultures were maintained at 37° C. in a humidified atmosphere of 5% CO2.
(§2) Cells were treated with test compound […] concentration and cell viability was determined after 96 hours by the Trypan blue exclusion method. Activity for each compound is reported as a range of cell induced death (% Death) with the lowest activity in the range of 5-10%.

[2] = system: colorectal carcinoma cell line DLD-1; assay: Viability assay, Trypan blue exclusion, colorectal carcinoma cell line DLD-1; conditions: Homo sapiens, DLD-1, 96 hours, read-out: percent cell death (% Death), DLD-1
Protocol: as §1, §2

[3] = system: non-small cell lung carcinoma cell line H157; assay: Viability assay, Trypan blue exclusion, non-small cell lung carcinoma cell line H157; conditions: Homo sapiens, NCI-H157, 96 hours, read-out: percent cell death (% Death), H157
Protocol: as §1, §2

[4] = system: breast tumor cell line BT-20; assay: Viability assay, Trypan blue exclusion, breast tumor cell line BT-20; conditions: Homo sapiens, BT-20, 96 hours, read-out: percent cell death (% Death), BT20
Protocol: as §1, §2

Measured: cytotoxicity

O=S(=O)(/C=C/c1ccc(Br)cc1)Cc1cccc2ccccc12 [Example 70, (E)-4-Bromostyryl-1-(naphthylmethyl)sulfone]
5 to 10%: all assays above
